{"source": "patent US10167262B2", "about": "“Herbicidal substituted 3-arylpyrazoles” (FMC CORPORATION, priority 2014, dated 2019)", "type_in_all_cases": "in vivo", "key": {"[1]": {"tested_on": "yellow nutsedge (Cyperus esculentus)", "assay": "Test C pre-/postemergence greenhouse test, plant response rating 0-100", "summary_of_the_method": "(§1)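 Visual rating vs controls after 13–15 d greenhouse; 0 = no effect, 100 = complete control. Pre: seeds in loam/sand, treated at planting. Post: seedlings 2–18 cm (1–4 leaf) in peat-based mix. Compounds in surfactant-containing non-phytotoxic solvent.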"}, "[2]": {"tested_on": "ragweed (common ragweed, Ambrosia elatior)", "assay": "Test C pre-/postemergence greenhouse test, plant response rating 0-100", "summary_of_the_method": "as §1"}, "[3]": {"tested_on": "Italian ryegrass (Lolium multiflorum)", "assay": "Test C pre-/postemergence greenhouse test, plant response rating 0-100", "summary_of_the_method": "as §1"}, "[4]": {"tested_on": "galium (catchweed bedstraw, Galium aparine)", "assay": "Test C pre-/postemergence greenhouse test, plant response rating 0-100", "summary_of_the_method": "as §1"}, "[5]": {"tested_on": "large (Lg) crabgrass (Digitaria sanguinalis)", "assay": "Test C pre-/postemergence greenhouse test, plant response rating 0-100", "summary_of_the_method": "as §1"}, "[6]": {"tested_on": "wheat (Triticum aestivum)", "assay": "Test A pre-/postemergence greenhouse herbicide test, visual injury rating 0-100", "conditions": "1000 g ai/ha", "summary_of_the_method": "(§2)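 Visual injury versus untreated controls, scored about 10 days after treatment on a 0 to 100 scale (0 = no effect, 100 = complete control). Applications were preemergence directed soil spray plus postemergence spray at one- to two-leaf stage, 2 to 10 cm plants.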"}, "corn (Zea mays)": {"tested_on": "corn (Zea mays)", "assay": "Test A pre-/postemergence greenhouse herbicide test, visual injury rating 0-100", "conditions": "1000 g ai/ha", "summary_of_the_method": "as §2"}, "[7]": {"tested_on": "morningglory (Ipomoea spp.)", "assay": "Test A pre-/postemergence greenhouse herbicide test, visual injury rating 0-100", "conditions": "1000 g ai/ha", "summary_of_the_method": "as §2"}, "[8]": {"tested_on": "barnyardgrass (Echinochloa crus-galli)", "assay": "Test A pre-/postemergence greenhouse herbicide test, visual injury rating 0-100", "conditions": "1000 g ai/ha", "summary_of_the_method": "as §2"}, "[9]": {"tested_on": "large (Lg) crabgrass (Digitaria sanguinalis)", "assay": "Test A pre-/postemergence greenhouse herbicide test, visual injury rating 0-100", "conditions": "1000 g ai/ha", "summary_of_the_method": "as §2"}, "[10]": {"tested_on": "velvetleaf (Abutilon theophrasti)", "assay": "Test A pre-/postemergence greenhouse herbicide test, visual injury rating 0-100", "conditions": "1000 g ai/ha", "summary_of_the_method": "as §2"}, "[11]": {"tested_on": "pigweed (Amaranthus retroflexus)", "assay": "Test A pre-/postemergence greenhouse herbicide test, visual injury rating 0-100", "conditions": "1000 g ai/ha", "summary_of_the_method": "as §2"}, "[12]": {"tested_on": "giant foxtail (Setaria faberii)", "assay": "Test A pre-/postemergence greenhouse herbicide test, visual injury rating 0-100", "conditions": "1000 g ai/ha", "summary_of_the_method": "as §2"}, "[13]": {"conditions": "Postemergence, 250 g ai/ha, scale 0 to 100"}}}
{"smiles": "O=C(c1cncc(F)c1)c1c[nH]nc1-c1cc(Cl)cc(Cl)c1", "note": "[Compound 19]", "values": [{"measurement": "Plant response rating (0 to 100), Nutsedge, Yellow", "setting": "[1]; Postemergence, 62 g ai/ha", "result": 5}, {"measurement": "Plant response rating (0 to 100), Nutsedge, Yellow", "setting": "[1]; Postemergence, 125 g ai/ha", "result": 5}, {"measurement": "Plant response rating, Nutsedge, Yellow", "setting": "[1]; [13]", "result": 5}, {"measurement": "Plant response rating, Nutsedge, Yellow", "setting": "[1]; Preemergence, 31 g ai/ha", "result": 0}, {"measurement": "Plant response rating, Nutsedge, Yellow", "setting": "[1]; Preemergence, 62 g ai/ha", "result": 0}, {"measurement": "Plant response rating, Nutsedge, Yellow", "setting": "[1]; Preemergence, 125 g ai/ha", "result": 0}, {"measurement": "Plant response rating, Nutsedge, Yellow", "setting": "[1]; Preemergence, 250 g ai/ha", "result": 0}, {"measurement": "Plant response rating (0 to 100), Ragweed", "setting": "[2]; Postemergence, 62 g ai/ha", "result": 70}, {"measurement": "Plant response rating (0 to 100), Ragweed", "setting": "[2]; Postemergence, 125 g ai/ha", "result": 80}, {"measurement": "Plant response rating, Ragweed", "setting": "[2]; [13]", "result": 90}, {"measurement": "Plant response rating, Ragweed", "setting": "[2]; Preemergence, 62 g ai/ha", "result": 85}, {"measurement": "Plant response rating, Ragweed", "setting": "[2]; Preemergence, 125 g ai/ha", "result": 100}, {"measurement": "Plant response rating, Ragweed", "setting": "[2]; Preemergence, 250 g ai/ha", "result": 100}, {"measurement": "Plant response rating (0 to 100), Ryegrass, Italian", "setting": "[3]; Postemergence, 62 g ai/ha", "result": 0}, {"measurement": "Plant response rating (0 to 100), Ryegrass, Italian", "setting": "[3]; Postemergence, 125 g ai/ha", "result": 0}, {"measurement": "Plant response rating, Ryegrass, Italian", "setting": "[3]; [13]", "result": 5}, {"measurement": "Plant response rating, Ryegrass, Italian", "setting": "[3]; Preemergence, 62 g ai/ha", "result": 0}, {"measurement": "Plant response rating, Ryegrass, Italian", "setting": "[3]; Preemergence, 125 g ai/ha", "result": 0}, {"measurement": "Plant response rating, Ryegrass, Italian", "setting": "[3]; Preemergence, 250 g ai/ha", "result": 10}, {"measurement": "Plant response rating (0 to 100), Galium", "setting": "[4]; Postemergence, 31 g ai/ha", "result": 15}, {"measurement": "Plant response rating (0 to 100), Galium", "setting": "[4]; Postemergence, 62 g ai/ha", "result": 40}, {"measurement": "Plant response rating (0 to 100), Galium", "setting": "[4]; Postemergence, 125 g ai/ha", "result": 40}, {"measurement": "Plant response rating, Galium", "setting": "[4]; [13]", "result": 45}, {"measurement": "Plant response rating, Galium", "setting": "[4]; Preemergence, 31 g ai/ha", "result": 0}, {"measurement": "Plant response rating, Galium", "setting": "[4]; Preemergence, 62 g ai/ha", "result": 80}, {"measurement": "Plant response rating, Galium", "setting": "[4]; Preemergence, 125 g ai/ha", "result": 95}, {"measurement": "Plant response rating, Galium", "setting": "[4]; Preemergence, 250 g ai/ha", "result": 100}, {"measurement": "Plant response rating (0 to 100), Crabgrass, Large", "setting": "[5]; Postemergence, 31 g ai/ha", "result": 0}, {"measurement": "Plant response rating (0 to 100), Crabgrass, Large", "setting": "[5]; Postemergence, 62 g ai/ha", "result": 0}, {"measurement": "Plant response rating (0 to 100), Crabgrass, Large", "setting": "[5]; Postemergence, 125 g ai/ha", "result": 10}, {"measurement": "Plant response rating, Crabgrass, Large", "setting": "[5]; [13]", "result": 10}, {"measurement": "Plant response rating, Crabgrass, Large", "setting": "[5]; Preemergence, 31 g ai/ha", "result": 0}, {"measurement": "Plant response rating, Crabgrass, Large", "setting": "[5]; Preemergence, 62 g ai/ha", "result": 0}, {"measurement": "Plant response rating, Crabgrass, Large", "setting": "[5]; Preemergence, 125 g ai/ha", "result": 0}, {"measurement": "Plant response rating, Crabgrass, Large", "setting": "[5]; Preemergence, 250 g ai/ha", "result": 0}, {"measurement": "Plant response rating (0 to 100 scale), Wheat", "setting": "[6]; Postemergence", "result": 0}, {"measurement": "Plant response rating (0 to 100 scale), Wheat", "setting": "[6]; Preemergence", "result": 0}, {"measurement": "Plant response rating (0 to 100 scale), Corn", "setting": "corn (Zea mays); Postemergence", "result": 0}, {"measurement": "Plant response rating (0 to 100 scale), Corn", "setting": "corn (Zea mays); Preemergence", "result": 0}, {"measurement": "Plant response rating (0 to 100 scale), Morningglory", "setting": "[7]; Postemergence", "result": 0}, {"measurement": "Plant response rating (0 to 100 scale), Morningglory", "setting": "[7]; Preemergence", "result": 0}, {"measurement": "Plant response rating (0 to 100 scale), Barnyardgrass", "setting": "[8]; Postemergence", "result": 0}, {"measurement": "Plant response rating (0 to 100 scale), Barnyardgrass", "setting": "[8]; Preemergence", "result": 0}, {"measurement": "Plant response rating (0 to 100 scale), Crabgrass, Large", "setting": "[9]; Postemergence", "result": 0}, {"measurement": "Plant response rating (0 to 100 scale), Crabgrass, Large", "setting": "[9]; Preemergence", "result": 0}, {"measurement": "Plant response rating (0 to 100 scale), Velvetleaf", "setting": "[10]; Postemergence", "result": 100}, {"measurement": "Plant response rating (0 to 100 scale), Velvetleaf", "setting": "[10]; Preemergence", "result": 90}, {"measurement": "Plant response rating (0 to 100 scale), Pigweed", "setting": "[11]; Postemergence", "result": 100}, {"measurement": "Plant response rating (0 to 100 scale), Pigweed", "setting": "[11]; Preemergence", "result": 100}, {"measurement": "Plant response rating (0 to 100 scale), Foxtail, Giant", "setting": "[12]; Postemergence", "result": 0}, {"measurement": "Plant response rating (0 to 100 scale), Foxtail, Giant", "setting": "[12]; Preemergence", "result": 0}]}
